# Legend:
# TGF-β = assay: Western blotting of TGF-β signaling inhibition (pSmad2/3, Smad2/3) in HepG2 cell line; format: cell-based, human; details: 10 μM peptide
# Protocol: To identify an inhibitory effect of TGF-β, considered as the main cause of fibrosis, of the novel peptides Pep-WH-1 to Pep-WH-12, an experiment for confirming a TGF-β signaling inhibitory action in a HepG2 cell line was carried out as follows.
# Reagents and materials used in the present experiment are as follows. Powder-type novel peptides were dissolved in 0.2 μm filtered sterile water, and then stored in the form of aliquots at −70° C., and, when in use, the stored peptides were thawed. A HepG2 cell line (ATCC HB-8065; American Type Culture Collection) was used, and recombinant human TGF-β was dissolved in 4 mM HCl to prepare a 10 μg/mL stock. SB431542 (Sigma) as a positive control was used after being prepared into 10 mM stock.
# 2×10^6 HepG2 cells (ATCC HB-8065) were seeded in a 60 mm petri dish, and then cultured in a CO2 incubator for 16 hours. Subsequently, the medium was replaced by a serum-free medium (SFM) and further cultured for 24 hours. Thereafter, the medium was replaced with 10 ng/mL of TGF-β1, and the HepG2 cells were treated with each of the novel peptides at each concentration (1 μM and 10 μM) and then cultured for 72 hours. Groups treated with the respective novel peptides were further cultured in a CO2 incubator at 37° C. for 1 hour.
# To measure anti-fibrotic activities of the novel peptides, an experiment for measuring a degree of TGF-β signaling inhibition was carried out by western blotting, and a detailed description of the experimental method is as follows.
# Cells treated with each peptide were washed twice with PBS, collected in a 1.5 mL EP tube using a cell scraper, and then centrifuged using a centrifugal separator (1,000 rpm, 4° C., 2 minutes) to remove the supernatant, and then 100 μL each was added to RIPA-treated HepG2 cells. The HepG2 cells were incubated on ice for 40 minutes, and then mixed by shaking every 10 minutes (vertex, micro-centrifuge pre-cooled to 4° C.), and each sample was mixed 40 times to 50 times using a 1 mL syringe. Lastly, the resulting mixture was centrifuged at 13,000 rpm for 15 minutes and the obtained supernatant was used.
# 30 μg of protein was subjected to 8% sodium dodecyl sulfate-polyacrylamide gel electrophoresis (SDS-PAGE) to be transferred to polyvinylidene difluoride (PVDF) membranes (Millipore). The PVDF membranes were blocked with 5% skim milk and incubated with particular primary antibodies. The antibodies used in this experiment are as follows: Smad 2/3 (60, 52 kDa, 5% BSA 1:1000, #3102, Cell signaling), pSmad2/3 (cell signaling #3102), and GAPDH (37 kDa, 5% BSA 1:1000, #2118, Cell signaling). Subsequently, the PVDF membranes were washed with tris-buffered saline containing 0.1% Tween-20 (TBST), and then reacted with an HRP-conjugated anti-rabbit antibody (manufactured by Jackson ImmunoResearch Laboratories, Inc.). Afterwards, ECL detection (Amersham Pharmacia Biotech) was performed thereon, and the acquired images were analyzed using an image analyzer (GE Healthcare, ImageQuant LAS 4000).
# To measure TGF-β inhibitory effects, pSmad2/3 and Smad2/3 were used as TGF-β signaling activity markers, and GAPDH was used as a reference group in electrophoresis. The TGF-β signaling activity markers which were expressed at a high concentration as TGF-β was inhibited were used.
# (§1) All data are expressed as mean±S.E.M., and statistical processing was performed by an ANOVA test. The SigmaStat statistical program was used and statistical analysis was performed using a Kruskal-Wallis test and a Mann-Whitney U-test. In addition, comparison between the groups was performed using a Tukey test and a p value less than 0.05 was determined as statistically significant.
# wound-induced SD rats = assay: Wound area in full-thickness excision wound-induced animal model; format: in vivo, Sprague-Dawley (SD) rats; details: 50 μL of 100 μg/mL applied every two days
# Protocol: To confirm wound healing effects of the novel peptides Pep-WH-8, Pep-WH-9, Pep-WH-11, and Pep-WH-1, a wound-induced animal model was treated with each of the novel peptides, and then an experiment to confirm an effect of each peptide in producing collagen needed for a decrease in wound size and in a wound healing process was carried out as follows.
# Sprague-Dawley (SD) rats were selected because mice have thin skins and it is difficult to uniformly induce a wound in mice. To exclude effects due to hormonal changes, male SD rats were selected and 6-week-old SD rats were purchased and acclimated for about 1 week. However, to more precisely obtain experimental results, an experiment was carried out after the 6-week-old SD rats became 11 weeks old. Since experimental animals are sensitive to olfactory responses and may attack other individual, individuals were separated from each other after wounds were formed, such as 1 rat for each cage, and observed.
# The following method was used to form full-thickness excision in the prepared experimental animals. To induce anesthesia, a mixture of 10 mg/kg (body weight) of xylazine-HCl and 100 mg/kg (body weight) of ketamine HCl were intraperitoneally injected into the experimental animals or the experimental animals were administered the mixture via a respiratory anesthesia system. After the induction of anesthesia, hairs on the back of the experimental animal in a prone position were shaved cleanly, the back was disinfected with betadine, and then one circular full-thickness excision was made on a site apart from the highest portion of the back to each of left and right sides by a distance of about 1 cm, using a 16 mm punch. Separate dressing was not performed on the wound sites.
# The full-thickness excision-induced animal model was divided into the following groups and a drug was applied on each group immediately after the formation of the excision and every two days. For the application method, a material was adjusted to a concentration of 1 mg/mL, and then, immediately before the experiment, the material was diluted 10 times to a concentration of 100 μg/mL. 50 μL of the material was applied dropwise on each excision.
# […] When the wounds were completely healed, the wound healing date was recorded. Generally, on about day 9, individuals with the wound sizes decreased to 5% of the initial wounds began to appear. The wound sites were photographed with a ruler, and then the acquired images were analyzed using the Image J program (NIH, USA) to calculate wound areas, and the wound areas were compared with each other.
# TNF-α [1] = assay: ELISA of TNF-α amounts in LPS-induced THP-1 cells; format: cell-based, human; details: all the concentrations (1 μM, 5 μM, 10 μM); FIG. 2
# Protocol: (§2) An experiment was carried out using THP-1 cells (American Type Culture Collection (ATCC), Manassas, Va., USA), which is a human acute monocytic leukemia cell line. THP-1 cells were suspended in RPMI 1640 medium to a concentration of 1×10^5 cells per well in a 96 well plate and incubated for 24 hours. At this time, the THP-1 cells were treated with phorbol 12-myristate 13-acetate (PMA) (Sigma) to differentiate into macrophages.
# The ELISA test method was as follows. THP-1, which is a monocyte cell line distributed from ATCC, was sub-cultured and prepared in the P3 stage, and the cell line was distributed into wells of a well plate and treated with PMA to differentiate into macrophages. The differentiated cells were treated with LPS to induce an inflammatory reaction (to induce the production of TNF-alpha), and were treated with each of the novel peptides at each concentration (1 μM, 5 μM, and 10 μM), and the amounts of TNF-α were measured by ELISA. Relative values for a non-inflammation group and a complete inflammation group were calculated, and estrogen (E2) was set as a positive control and a non-treated cell line not treated with the novel peptides was set as a general control to perform comparative analysis. E2 is known as a steroid that inhibits the production of TNF-α in THP-1.
# as §1, with “mean±standard error of the mean (S.E.M.),” for “mean±S.E.M.,”, “A” for “The”
# TNF-α [2] = assay: RT-qPCR of TNF-α mRNA expression in LPS-treated THP-1 cells; format: cell-based, human; details: 1 μM, the lowest treatment concentration; FIG. 1
# Protocol: as §2
# The RT-qPCR test method was as follows. THP-1 cells were plated on a 6-well plate at a concentration of 2×10^6 cells/well and treated with 100 ng/mL of PMA for 24 hours to differentiate into macrophages. The media were removed and the differentiated THP-1 cells were washed twice with serum-free media (SFM), and then each novel peptide was treated with 10 ng/mL of LPS at each concentration of 1 μM, 5 μM, and 10 μM for 6 hours. RNA was extracted using RNeasy® Plus Mini Kit (Qiagen), and the extracted RNA was quantified and then cDNA synthesis was performed using a Reverse Transcription System (Promega). […]
# All data are expressed as mean±standard error of the mean (S.E.M.), and statistical processing was performed by an ANOVA test. […] In addition, comparison between the groups was performed using a Tukey test and a p value less than 0.05 was determined as statistically significant.
# [3] = day 3 after full-thickness excision
# [4] = day 1 after full-thickness excision
Substance,TGF-β inhibitory activity compared to positive control 10 μM SB431542 (TGF-β),inflammation-inducing activity (TNF-α amount) compared to E2 positive control (TNF-α [1]),other results
ALSSRLRF (Pep-WH-3 peptide),higher TGF-β inhibitory activity,–,–
ALSTRLRA (Pep-WH-4 peptide),higher TGF-β inhibitory activity,–,–
ALSTRLRF (Pep-WH-6 peptide),higher TGF-β inhibitory activity,–,–
ALSTRLRG (Pep-WH-5 peptide),higher TGF-β inhibitory activity,–,–
ALTSKLRF (Pep-WH-12 peptide),higher TGF-β inhibitory activity,lower inflammation-inducing activity,wound size compared to control (wound-induced SD rats; [3]): smaller wound size
ALTSRVRA (Pep-WH-7 peptide),higher TGF-β inhibitory activity,–,–
ALTSRVRF (Pep-WH-9 peptide),–,lower inflammation-inducing activity,wound size compared to control (wound-induced SD rats; [4]): smaller wound size
ALTSRVRG (Pep-WH-8 peptide),–,lower inflammation-inducing activity,wound size compared to control (wound-induced SD rats; [3]): smaller wound size
Pep-WH-11: novel peptide prepared by the same method as Pep-WH-1; sequence not printed in Table 2 (ALSTRLRG; Pep-WH-11 peptide),–,lower inflammation-inducing activity,"anti-inflammatory activity (TNF-α mRNA inhibition), comparison among peptides (TNF-α [2]): highest anti-inflammatory activity; wound size compared to control (wound-induced SD rats; [4]): smaller wound size"

# Source: patent US10676507B2, “Peptide and composition containing the same for anti-inflammation, anti-fibrosis, wound healing, and anticancer treatment” (GemVax & KAEL CO., LTD., priority 2015, dated 2020)
